Patent publication US20250266123A1, “IN SILICO METHOD OF IDENTIFYING ALLOSTERIC HECT E3-LIGASE INHIBITORS” (Ramot at Tel-Aviv University Ltd., priority 2024, published 2025)

Columns and labels:
human SMURF1 promoter = assay: Human SMURF1 promoter-GFP reporter in HEK293 cells; assay type: cell-based; conditions: HEK293 stably transfected
Method: (§1) FIG. 13. (A) Screen for modulators of SMURF1 mRNA abundance in PASMCs. Human PASMCs from PAH patients were treated with agents that are associated with PAH, including cytokines, chemokines, growth factors, and small molecule pathway probes, and were cultured under hypoxic conditions to identify modulators of SMURF1 mRNA (n=2 donors). […] The human SMURF1 promoter was stably transfected into HEK293 cells upstream of a GFP sequence.

E1, E2, CAT = assay: Split-CAT system counter-checks (E1, E2, CAT activity, E. coli toxicity); assay type: cell-based
Method: (§2) Assays were performed as previously described.84,85 The selection plasmids were co-transformed into Mach1™-T1R E. coli cells. All growth assays were performed in LB agar or liquid at 37° C. Optimization of chloramphenicol (CAM) concentrations were performed according to the largest growth shift between the hyperactive mutant to the catalytic dead mutant in SMURF1 (ΔC2-K381R; ΔC2-C725A) or in E6AP (HECTd-K466R; HECTd-C820A) at each assay as previously described. The disclosers constructed a split-CAT based E3-dependent Rpn10 full length ubiquitylation cascade to monitor the effect of inhibitor and point mutations in ubiquitin E3 ligases. Specifically, yeast Rpn10 was tethered to N-CAT as a general ubiquitylation target and co-expressed with C-CAT-Ub, E1, E2 and human SMURF1235-757: wild-type DC2, K381R or catalytic dead C725A. Similarly, E6AP453-852: wild-type HECTd, K466R or catalytic dead HECTd-C820A.
(§3) To inspect ubiquitylation of BMPR2, the disclosures substituted Rpn10 with BMPR2174-558 cytosolic portion fused to the N-CAT. […] Inhibition assays were performed in liquid LB using 96 well-plate with Tecan Sunrise reader high intensity shaking for 9.5 mins rest for 10, 5 mins shake and read at 595 nm. Growth was monitored between 12-36 Hrs as indicated.

E6AP = target: T1, E6AP (Homo sapiens, UniProt Q05086, K489R); assay: E. coli split-CAT E6AP reporter system; assay type: cell-based
T1 construct: Similarly, E6AP453-852: wild-type HECTd, K466R or catalytic dead HECTd-C820A; expressed in transfected cells; host or cells: Mach1-T1R E. coli
T1 sequence (Q05086 453-852 isoform Q05086-2 K466R): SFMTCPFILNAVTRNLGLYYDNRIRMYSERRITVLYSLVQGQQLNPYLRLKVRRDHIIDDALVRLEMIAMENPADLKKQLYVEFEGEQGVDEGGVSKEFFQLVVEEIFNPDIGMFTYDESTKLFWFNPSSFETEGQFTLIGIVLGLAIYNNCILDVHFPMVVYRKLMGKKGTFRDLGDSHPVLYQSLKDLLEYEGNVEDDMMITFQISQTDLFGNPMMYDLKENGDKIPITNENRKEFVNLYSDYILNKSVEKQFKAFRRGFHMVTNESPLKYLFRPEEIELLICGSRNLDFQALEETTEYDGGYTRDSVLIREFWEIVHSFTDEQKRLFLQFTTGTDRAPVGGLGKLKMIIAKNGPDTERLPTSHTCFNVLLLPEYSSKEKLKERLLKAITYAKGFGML
Method: as §2
as §3, with “indicated. […]” for “indicated.”

SMURF1 mRNA = assay: Screen for modulators of SMURF1 mRNA abundance in PASMCs; assay type: cell-based, human; conditions: PASMCs from PAH patients; normalized Ct values
Method: as §1

Compound	GFP signal (SMURF1 promoter) (human SMURF1 promoter)	Effect on E1, E2, or CAT activities (E1, E2, CAT)	Inhibition of E6AP S739L, R740G double mutant (E6AP; escape mutant, FIG. 6K)	E6AP activity (E6AP; hyperactive HECTd-K466R E6AP, FIG. 6I)	SMURF1 expression (mRNA) (SMURF1 mRNA)
CO/C1=C\C(C)=C\[C@@H](C)[C@@H](O)[C@@H](C)C/C(C)=C/C=C/[C@H](OC)[C@@H]([C@@H](C)[C@@H](O)[C@H](C)[C@@]2(O)C[C@@H](O)[C@H](C)[C@@H](C(C)C)O2)OC1=O [bafilomycin A1, reference compound]	increased GFP signal				
Cc1ccc(-n2ccnc2N2CCN(C(=O)C34CC5CC(CC(C5)C3)C4)CC2)cc1 [i-27, 1-[1-(4-methylphenyl)-imidazol-2-yl]-4-[adamantane-1-carbonyl]piperazine]		without affecting E1, E2, or CAT activities	inhibition was reduced twofold	reduced E6AP activity in a dose-dependent manner	
TGFβ1: transforming growth factor beta 1, agent in SMURF1 modulator screen	increased GFP signal				increase SMURF1 expression
